Measured values from patent EP4094756A1 (priority 2021, dated 2022).

Tested on: SARS-CoV-2 VOC (Alpha, Beta, and Delta)
Assay: SARS-CoV2 VOC testing in Vero cells, standard plaque assay
Type: cell-based

## Cc1cc(O)c2c(=O)c3c(O)cc(O)c4c5c(O)cc(O)c6c(=O)c7c(O)cc(C)c8c1c2c(c34)c(c78)c65 [Hypericin, hypericin]
  drop of virus titers in comparison to DMSO-treated controls: 3-5 log steps
